Patent US20230233425A1, “USE OF VOLATILE COMPOSITIONS TO LIMIT OR ELIMINATE THE PERCEPTION OF MALODOR” (Firmenich SA, priority 2017, published 2023)
Read-outs that look alike come from different tables or passages of the source. Marks after values point to notes of the source that are not given here.

What was measured:
[1] = test system: geonol earthy/moss odor perception; test: Human sensory performance of test compounds with and without geonol; type: in vivo; settings: for % Earthy/Moss Odor: Test Compound Only
Excerpt: Sensory Evaluation: Five 16 oz glass jars containing either REF (geonol only), geonol only control, antagonist only, mixture of geonol and isointense antagonist, or mixture of geonol and low intensity antagonist were presented to the panelists (last four samples were randomized across panelists). The panelists were asked to familiarize themselves with the earthy/moss odor quality from the REF jar first, then rate the pleasantness, earthy/moss odor intensity and overall odor intensity of the next four samples on a 0-10 linear scale. The inter-stimulus interval between the samples was two minutes to avoid adaptation. […]
The results are shown in Tables 16 and 17, and FIGS. 3 to 5.

[2] = test system: geonol receptors Olfr339, Olfr1487, Olfr1A1, OR11A1, Olfr96; test: Antagonists of geonol receptors (Example 11); type: cell-based, mouse and human; set-up: Inhibition(%): concentration or dose not given beside the values; settings: Table 18
[3] = test system: 1-octen-3-ol receptors OR2W1, Olfr93, Olfr120, Olfr398; test: Antagonists of 1-octen-3-ol receptors (Example 11); type: cell-based, mouse and human; set-up: Inhibition(%): concentration or dose not given beside the values; settings: Table 19
[4] = test system: geonol malodor (earthy/moss odor) perception; test: Sensory evaluation of geonol earthy/moss odor in iso-intense binary mixtures (glass jars); type: in vivo, human; settings: iso-intense binary mixture
Excerpt: Sensory Evaluation: Five 16 oz glass jars containing either REF (geonol only), geonol only control, antagonist only, mixture of geonol and isointense antagonist, or mixture of geonol and low intensity antagonist were presented to the panelists (last four samples were randomized across panelists). The panelists were asked to familiarize themselves with the earthy/moss odor quality from the REF jar first, then rate the pleasantness, earthy/moss odor intensity and overall odor intensity of the next four samples on a 0-10 linear scale. The inter-stimulus interval between the samples was two minutes to avoid adaptation.

Olfr740 = Olfr740 (Mus musculus, UniProt E9PV79); test: Indole antagonist dose-response, cAMP HTRF in HEK293T, vs indole EC80; type: cell-based; settings: for Emax: HEK-293T, read-out: Olfr740 % Inhibition
Sequence of Olfr740 (E9PV79 entry or part of it): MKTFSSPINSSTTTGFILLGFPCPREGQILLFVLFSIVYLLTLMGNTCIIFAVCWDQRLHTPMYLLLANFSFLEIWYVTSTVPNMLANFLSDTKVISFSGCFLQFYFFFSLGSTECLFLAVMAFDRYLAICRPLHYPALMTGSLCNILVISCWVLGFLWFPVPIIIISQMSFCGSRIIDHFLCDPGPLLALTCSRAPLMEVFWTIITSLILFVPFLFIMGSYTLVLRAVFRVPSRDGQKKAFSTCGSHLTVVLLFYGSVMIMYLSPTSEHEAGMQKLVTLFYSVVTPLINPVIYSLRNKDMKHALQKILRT
Method: (§1) Using a cell-based assay, mouse receptor Olfr738, Olfr739, Olfr740, Olfr741, 0fr742, Olfr743, Olfr744, Olfr746, Olfr748 and Olfr749 were tested in an HEK293T cell line wherein the endogenous RTP1 gene has been activated and the odorant receptor chaperone was expressed (described in WO2016201153A1). The receptor genes were tagged with a Flag-Rho tag combination. Receptor genes were co-transfected with the canonical olfactory human G-protein alpha subunit Golf gene. Co-expression of the human Golf activates the Gs transduction pathway that leads to an internal cAMP increase upon binding to the appropriate ligand (indole here). Odorant-induced activity was detected by measuring the cAMP increase in the cytosol using an HTRF based kit (CisBio, cAMP dynamic 2 kit, cat. 62AM4PEJ).

[5] = test system: 1-octen-3-ol mushroom/earthy/fungal odor perception; test: Human sensory performance of test compounds with and without 1-octen-3-ol; type: in vivo; settings: for % Mushroom/Earthy/Fungal Odor: Test Compound Only
[6] = test system: OR2W1 or the OR1A1 olfactory receptor; test: 1-octen-3-ol olfactory receptor antagonist cell-based dose-response vs 1-octen-3-ol EC80; settings: for IC50: 1-octen-3-ol at EC80; for % Inhibition: maximum inhibition normalized to baseline agonist activity
Excerpt: Each cell line was screened with a volatile compound library for their inhibitory properties and potential 1-octen-3-ol smell inhibition.
Single concentration monitoring of the 1-octen-3-ol induced cell activity in the presence or absence of a test compound allowed for the identification of compounds with a putative suppression or inhibitory effect.

[7] = test system: OR11A1, or the OR2M3 olfactory receptor; test: Geonol olfactory receptor antagonist cell-based screening, inhibitory dose-response vs geonol EC80; set-up: species or system human; settings: geonol at EC80; for IC50: read-out: IC50
Olfr742 = Olfr742 (Mus musculus, UniProt A2RTP5); test: Indole antagonist dose-response, cAMP HTRF in HEK293T, vs indole EC80; type: cell-based; settings: for Emax: HEK-293T, read-out: Olfr742 % Inhibition
Sequence of Olfr742 (A2RTP5 entry or part of it): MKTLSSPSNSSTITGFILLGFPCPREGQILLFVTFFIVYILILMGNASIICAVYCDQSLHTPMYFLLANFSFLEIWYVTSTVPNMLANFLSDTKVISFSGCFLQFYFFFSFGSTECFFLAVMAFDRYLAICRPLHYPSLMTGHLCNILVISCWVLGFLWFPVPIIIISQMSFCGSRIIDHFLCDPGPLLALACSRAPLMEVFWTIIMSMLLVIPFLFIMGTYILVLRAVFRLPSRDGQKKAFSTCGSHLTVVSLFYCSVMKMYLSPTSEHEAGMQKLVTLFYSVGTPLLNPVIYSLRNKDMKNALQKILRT
Method: as §1

Olfr738 = Olfr738 (Mus musculus, UniProt L7N1X7); test: as above; type: cell-based; settings: for Olfr738 % Inhibition: Table 22, first listing
Sequence of Olfr738 (L7N1X7 entry or part of it): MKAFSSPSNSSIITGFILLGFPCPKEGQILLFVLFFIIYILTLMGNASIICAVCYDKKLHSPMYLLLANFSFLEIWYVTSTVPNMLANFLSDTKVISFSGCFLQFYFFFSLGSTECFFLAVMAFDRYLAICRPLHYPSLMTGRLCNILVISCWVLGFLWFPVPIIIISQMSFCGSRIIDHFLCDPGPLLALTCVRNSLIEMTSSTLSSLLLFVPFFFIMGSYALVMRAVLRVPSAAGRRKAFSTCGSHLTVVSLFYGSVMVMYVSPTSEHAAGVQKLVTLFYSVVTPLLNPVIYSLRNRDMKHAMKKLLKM
Method: as §1

Olfr741 = Olfr741 (Mus musculus, UniProt L7N1Y5); test: as above; type: cell-based; settings: Table 22, first listing
Sequence of Olfr741 (L7N1Y5 entry or part of it): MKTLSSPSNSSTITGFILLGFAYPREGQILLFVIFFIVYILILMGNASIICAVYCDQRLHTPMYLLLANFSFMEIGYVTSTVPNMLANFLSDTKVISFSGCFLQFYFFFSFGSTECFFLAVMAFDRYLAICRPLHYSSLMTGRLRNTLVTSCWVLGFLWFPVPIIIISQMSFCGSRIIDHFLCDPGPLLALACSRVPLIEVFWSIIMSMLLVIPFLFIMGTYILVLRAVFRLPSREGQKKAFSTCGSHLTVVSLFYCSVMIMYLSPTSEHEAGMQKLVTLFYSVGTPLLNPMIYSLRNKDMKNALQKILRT
Method: as §1

[8] = molecular target: T1, OR51E1 olfactory receptor (Homo sapiens, UniProt Q8TCB6); test: Butyric acid olfactory receptor antagonist cell-based dose-response vs butyric acid EC80; settings: butyric acid at EC80; Table 5
T1 construct: expressed in transfected cells
T1 sequence (Q8TCB6 1-318): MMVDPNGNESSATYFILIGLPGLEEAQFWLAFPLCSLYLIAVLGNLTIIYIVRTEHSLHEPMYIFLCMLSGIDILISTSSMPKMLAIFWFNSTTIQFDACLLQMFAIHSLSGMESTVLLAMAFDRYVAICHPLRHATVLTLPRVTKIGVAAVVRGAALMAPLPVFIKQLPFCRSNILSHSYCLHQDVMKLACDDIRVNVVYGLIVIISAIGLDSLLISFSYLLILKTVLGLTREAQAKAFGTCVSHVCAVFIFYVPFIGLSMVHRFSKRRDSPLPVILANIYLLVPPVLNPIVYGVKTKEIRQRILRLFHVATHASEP

[9] = Table 22, first listing, vs indole EC80
[10] = Table 22, first listing (r7-r45), vs indole EC80, read-out: Olfr740 IC50
[11] = Low Dilution Test Compound + Geonol (0.1%)
[12] = Medium Dilution Test Compound + Geonol (0.1%)
[13] = Low Dilution Test Compound + 1-octen-3-ol (0.15%)
[14] = Medium Dilution Test Compound + 1-octen-3-ol (0.15%)
[15] = Table 22, first listing (r7-r45), vs indole EC80, read-out: Olfr742 IC50

CC(=O)C=CC1=C(C)CCCC1(C)C [4-(2,6,6-trimethylcyclohexen-1-yl)but-3-en-2-one]
% Earthy/Moss Odor [1]: 41.80% | IC50 [2]: 289 µM | Inhibition(%) [2]: 51% | IC50 [3]: 269 µM | Inhibition(%) [3]: 66% | % Remaining in human sensory tests [4]: 43* %

CC(CC=O)CCc1ccccc1 (stereo not drawn) [3-methyl-5-phenylpentanal]
Emax (Olfr740; [9]): 110% | IC50 (Olfr740; [10]): 16.1 µM

CC(=O)OC(c1ccccc1)C(Cl)(Cl)Cl (stereo not drawn) [(2,2,2-trichloro-1-phenylethyl) acetate]
% Earthy/Moss Odor [1]: 38.60% | % Mushroom/Earthy/Fungal Odor [5]: 30.00% | % Remaining in human sensory tests [4]: 61%

CC(C)(C)c1ccccc1O [2-tertbutyl phenol]
IC50 [6]: 37 µM | % Inhibition [6]: 100.34% | % Earthy/Moss Odor [1]: 41.30% | % Inhibition [7]: 100% | IC50 [7]: 88 µM | % Remaining in human sensory tests [4]: 46* %

3-methyl-4-(2,6,6-trimethylcyclohex-2-en-1-yl)but-3-en-2-one; 1-(2,6,6-trimethylcyclohex-2-en-1-yl)pent-1-en-3-one
% Earthy/Moss Odor Remaining [1, 11]: 75.80% | % Earthy/Moss Odor Remaining [1, 12]: 56.20% | % Earthy/Moss Odor [1]: 29.40% | % Mushroom/Earthy/Fungal Odor Remaining [5, 13]: 75.80% | % Mushroom/Earthy/Fungal Odor Remaining [5, 14]: 53.50% | % Mushroom/Earthy/Fungal Odor [5]: 20.00% | % Remaining in human sensory tests [4]: 38* %

CC(CC=O)CCCC(C)(C)O (stereo not drawn) [7-hydroxy-3,7-dimethyloctanal]
% Remaining in human sensory tests [4]: 39* %

Cc1ccc2c(c1)CC(C)(CO)C2 (stereo not drawn) [(2,5-dimethyl-1,3-dihydroinden-2-yl)methanol]
% Earthy/Moss Odor [1]: 41.70% | % Mushroom/Earthy/Fungal Odor [5]: 36.30% | % Remaining in human sensory tests [4]: 37* %

CCCCCCc1ccc(C)nc1 [5-hexyl-2-methylpyridine 10% Citr, 5-hexyl-2-methylpyridine]
% Earthy/Moss Odor [1]: 46.40% | IC50 [7]: 555 µM | % Remaining in human sensory tests [4]: 37%

CCCCCC1CCCC1=O (stereo not drawn) [Compound 2-pentylcyclopentan-1-one, 2-pentylcyclopentan-1-one]
% Earthy/Moss Odor [1]: 40.90% | % Remaining in human sensory tests [4]: 78%

CC(=O)CCC=C(C)CCC=C(C)C [6,10-dimethylundeca-5,9-dien-2-one]
% Earthy/Moss Odor [1]: 52.80% | % Inhibition [7]: 50% | IC50 [7]: 133 µM | % Remaining in human sensory tests [4]: 45* %

CC(=O)OCCc1ccccc1 [phenyl ethyl acetate]
% Earthy/Moss Odor Remaining [1, 11]: 97.10% | % Earthy/Moss Odor Remaining [1, 12]: 65.80% | % Earthy/Moss Odor [1]: 35.30% | % Remaining in human sensory tests [4]: 47* %

CC(C)=CCCC(C)=CC=O [3,7-dimethylocta-2,6-dienal]
% Earthy/Moss Odor [1]: 27.60% | % Mushroom/Earthy/Fungal Odor [5]: 22.30% | % Remaining in human sensory tests [4]: 42* %

Cc1ccc(CC(C)C=O)cc1 (stereo not drawn) [2-methyl-3-(4-methylphenyl) propanal]
Emax (Olfr742; [9]): 37.2% | IC50 (Olfr742; [15]): 88.2 µM

CC1C(C)(C)C2=C(C(=O)CCC2)C1(C)C (stereo not drawn) [1,1,2,3,3-pentamethyl-2,5,6,7-tetrahydroinden-4-one]
IC50 [6]: 51.2 µM | % Inhibition [6]: 118.44% | IC50 (Olfr738; Table 22, first listing (r7-r45), vs indole EC80, read-out: Olfr738 IC50): 21.3 µM | Olfr738 % Inhibition (Olfr738; vs indole EC80): 61.33% | Emax (Olfr740; [9]): 217% | IC50 (Olfr740; [10]): 12 µM | Emax (Olfr742; [9]): 120% | IC50 (Olfr742; [15]): 249 µM | IC50 (Olfr741): 2560 µM | Olfr741 % Inhibition (Olfr741): 140.61% | IC50 [2]: 268 µM | Inhibition(%) [2]: 71% | % Mushroom/Earthy/Fungal Odor [5]: 25.90%

CC1=CC(C)C(C=O)CC1 (stereo not drawn) [2,4-dimethylcyclohex-3-enecarbaldehyde]
IC50 [6]: 18.8 µM | % Inhibition [6]: 107.99% | % Remaining in human sensory tests [4]: 45* %

1-(4,8-dimethyl-12-methylidenecyclododeca-4,8-dien-1-yl)ethanone; 1-(2,6,10-trimethylcyclododeca-1,5,9-trien-1-yl)ethanone; 1-(2,6,10-trimethylcyclododeca-2,5,9-trien-1-yl)ethanone
IC50 [6]: 82.4 µM | % Inhibition [6]: 113.23% | IC50 [8]: 101 µM | % Mushroom/Earthy/Fungal Odor Remaining [5, 13]: 88.90% | % Mushroom/Earthy/Fungal Odor Remaining [5, 14]: 68.50% | % Mushroom/Earthy/Fungal Odor [5]: 26.70% | % Inhibition [7]: 20% | IC50 [7]: 301 µM

CC(C)Cc1ccc2ccccc2n1 [isobutylquinoline, 2-ISOBUTYLQUINOLINE]
IC50 [6]: > 600 µM | % Inhibition [6]: 30.14% | % Earthy/Moss Odor [1]: 37.80% | % Mushroom/Earthy/Fungal Odor [5]: 27.30% | % Inhibition [7]: 45%

CC(CC=O)c1ccccc1 (stereo not drawn) [3-phenylbutanal]
Emax (Olfr742; [9]): 113% | IC50 (Olfr742; [15]): 44.8 µM

CCC=CCCC=CC=O [nona-2,6-dienal]
% Earthy/Moss Odor [1]: 65.40% | % Inhibition [7]: 80% | IC50 [7]: 156 µM | % Remaining in human sensory tests [4]: 67%

Cc1ccc(C(C)C)c(O)c1 [thymol, 5-Methyl-2-(propan-2-yl)phenol]
% Earthy/Moss Odor [1]: 54.70% | % Inhibition [7]: 100% | IC50 [7]: 107 µM | % Remaining in human sensory tests [4]: 53%

CCCCCOC(=O)Cc1ccccc1 [Amyl Phenylacetate]
IC50 (Olfr738): 82.7 µM | Olfr738 % Inhibition (Olfr738; vs indole EC80): 18.44% | IC50 (Olfr740): 40.4 µM | Emax (Olfr740): 61% | IC50 (Olfr742): 141 µM | Emax (Olfr742): 18%

CC1CC(C)(c2ccccc2)CO1 (stereo not drawn) [2,4-dimethyl-4-phenyloxolane]
Emax (Olfr740; [9]): 100% | IC50 (Olfr740; [10]): 51.2 µM
